Experimental data as given in ChEMBL document CHEMBL3886166, “Heterocyclic compounds” (2015).

These molecules were tested against T1, Transient receptor potential cation channel subfamily V member 1 (Homo sapiens, UniProt Q8NER1) (assay: pH-Based Assay: Two days prior to performing this assay, cells are seeded on poly-D-lysine-coated 96-well clear-bottom black plates (commercially available from Becton-Dickinson) at 75,000 cells/well in growth media containing 5 uM PonA (commercially available from Invitrogen) to induce expression of TRPV1. On the day of the assay, the plates are washed with 0.2 mL 1x Hank's Balanced Salt Solution (commercially available from Life Technologies) containing 1.6 mM CaCl2 and 20 mM HEPES, pH 7.4 (wash buffer), and loaded using 0.1 mL of wash buffer containing Fluo-4 (3 uM final concentration, commercially available from Molecular Probes). After 1 h, the cells are washed twice with 0.2 mL wash buffer and resuspended in 0.05 mL 1x Hank's Balanced Salt Solution (commercially available from Life Technologies) containing 3.5 mM CaCl2 and 10 mM Citrate, pH 7.4 (assay buffer). Plates are then transferred to a FLIPR for assay.).
T1 sequence (Q8NER1 whole entry): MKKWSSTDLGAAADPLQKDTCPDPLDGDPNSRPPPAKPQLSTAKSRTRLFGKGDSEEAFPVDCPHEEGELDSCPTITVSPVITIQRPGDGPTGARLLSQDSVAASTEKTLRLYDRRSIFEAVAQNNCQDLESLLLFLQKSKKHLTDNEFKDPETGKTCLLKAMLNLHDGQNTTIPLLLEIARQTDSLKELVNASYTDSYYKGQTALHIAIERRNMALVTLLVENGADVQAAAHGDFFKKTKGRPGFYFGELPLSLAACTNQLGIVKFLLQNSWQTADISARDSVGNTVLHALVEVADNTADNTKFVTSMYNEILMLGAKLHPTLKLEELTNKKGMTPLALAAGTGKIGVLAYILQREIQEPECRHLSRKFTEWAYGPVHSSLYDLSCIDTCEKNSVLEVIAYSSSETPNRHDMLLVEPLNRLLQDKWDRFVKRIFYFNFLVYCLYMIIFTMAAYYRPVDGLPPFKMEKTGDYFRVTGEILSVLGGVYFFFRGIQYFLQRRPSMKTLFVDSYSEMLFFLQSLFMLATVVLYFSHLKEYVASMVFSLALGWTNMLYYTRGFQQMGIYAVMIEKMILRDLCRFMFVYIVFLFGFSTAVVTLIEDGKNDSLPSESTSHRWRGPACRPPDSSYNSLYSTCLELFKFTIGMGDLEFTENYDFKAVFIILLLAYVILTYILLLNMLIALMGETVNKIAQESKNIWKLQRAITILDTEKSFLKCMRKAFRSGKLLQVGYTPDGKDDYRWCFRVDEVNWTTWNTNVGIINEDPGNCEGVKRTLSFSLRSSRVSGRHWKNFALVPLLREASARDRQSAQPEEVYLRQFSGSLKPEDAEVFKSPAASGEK

Row | SMILES | IC50
1 | O=C(Nc1ccc(C(F)(F)F)cn1)N1CCN(c2ncc(-c3nc(CO)no3)cc2Cl)CC1 | < 100 nM
2 | Cc1cc(NC(=O)N2CC=C(c3ncc(-c4nnc(CCO)o4)cc3Cl)CC2)ccc1OC(F)(F)F | < 100 nM
3 | Cc1noc(-c2cnc(C3=CCN(C(=O)Nc4ccc(OC(F)(F)F)cc4)CC3)c(Cl)c2)n1 | < 100 nM
4 | O=C(Nc1ccc(C(F)(F)F)cn1)N1CC=C(c2ncc(-c3cnc(CO)o3)cc2Cl)CC1 | < 100 nM
5 | Cc1cc(NC(=O)N2CC=C(c3ncc(-c4nnc(CCO)o4)cc3Cl)CC2)ccc1C(F)(F)F | < 100 nM
6 | Cc1cc(NC(=O)N2CCN(c3ncc(-c4nc(CO)no4)cc3Cl)CC2)ccc1C(F)(F)F | < 100 nM
7 | O=C(Nc1ccc(C(F)(F)F)c(Cl)c1)N1CCN(c2ncc(-c3nnc(CO)o3)cc2Cl)CC1 | < 100 nM
8 | Cc1cc(NC(=O)N2CC=C(c3ncc(-c4nc(CO)no4)cc3Cl)CC2)ccc1C(F)(F)F | < 100 nM
9 | O=C(Nc1ccc(C(F)(F)F)c(Cl)c1)N1CC=C(c2ncc(-c3ocnc3CO)cc2Cl)CC1 | < 100 nM
10 | Cc1cc(NC(=O)N2CCN(c3ncc(-c4nnc(CO)o4)cc3Cl)CC2)ccc1C(F)(F)F | < 100 nM
11 | Cc1nnc(-c2cnc(C3=CCN(C(=O)Nc4ccc(C(F)(F)F)cn4)CC3)c(Cl)c2)o1 | < 100 nM
12 | O=C(Nc1ccc(C(F)(F)F)c(Cl)c1)N1CCC(F)(c2ncc(-c3nc(CO)no3)cc2Cl)CC1 | < 100 nM
13 | Cc1noc(-c2cnc(C3=CCN(C(=O)Nc4ccc(C(F)(F)F)cc4)CC3)c(Cl)c2)n1 | < 100 nM
14 | O=C(Nc1ccc(C(F)(F)F)c(Cl)c1)N1CC=C(c2ncc(-c3cc(CO)on3)cc2Cl)CC1 | < 100 nM
15 | O=C(Nc1ccc(C(F)(F)F)cn1)N1CC=C(c2ccc(-c3nnc(CO)o3)cc2Cl)CC1 | < 100 nM
16 | O=C(Nc1ccc(C(F)(F)F)cn1)N1CC=C(c2ncc(-c3cc(CO)on3)cc2Cl)CC1 | < 100 nM
17 | Cc1cc(NC(=O)N2CCC(F)(c3ncc(-c4nc(CO)no4)cc3Cl)CC2)ccc1C(F)(F)F | < 100 nM
18 | O=C(Nc1ccc(C(F)(F)F)c(Cl)c1)N1CCC(F)(c2ncc(-c3noc(CO)n3)cc2Cl)CC1 | < 100 nM
19 | O=C(Nc1ccc(C(F)(F)F)cn1)N1CCC(F)(c2ncc(-c3noc(CO)n3)cc2Cl)CC1 | < 100 nM

Each molecule was assayed against T1, Transient receptor potential cation channel subfamily V member 1 (assay: Capsaicin-Based Assay: Two days prior to performing this assay, cells are seeded in poly-D-lysine-coated 96-well clear-bottom black plates (50,000 cells/well) in growth media containing 5 uM PonA (commercially available from Invitrogen) to induce expression of TRPV1. On the day of the assay, the plates are washed with 0.2 mL 1x Hank's Balanced Salt Solution (commercially available from Life Technologies) containing 1 mM CaCl2 and 20 mM HEPES, pH 7.4, and cells are loaded using 0.1 mL of wash buffer containing Fluo-4 (3 uM final). After one hour, the cells are washed twice with 0.2 mL of wash buffer and resuspended in 0.1 mL of wash buffer. The plates are transferred to a FLIPR for assay. 50 uL of test compound diluted with assay buffer (1x Hank's Balanced Salt Solution containing 1 mM CaCl2 and 20 mM HEPES, pH 7.4) are added to the cell plates and incubated for 2 min. The final concentration of the compound is adjusted to range from about 50 picoM to about 3 uM.).

Row | SMILES | IC50
20 | O=C(Nc1ccc(C(F)(F)F)cn1)N1CC=C(c2ncc(-c3nc(CO)no3)cc2Cl)CC1 | < 100 nM
21 | Cc1cc(NC(=O)N2CCC(F)(c3ncc(-c4ocnc4CO)cc3Cl)CC2)ccc1C(F)(F)F | < 100 nM
22 | O=C(Nc1ccc(C(F)(F)F)c(Cl)c1)N1CC=C(c2ncc(-c3noc(CO)n3)cc2Cl)CC1 | < 100 nM
23 | Cc1nnc(-c2cnc(C3=CCN(C(=O)Nc4ccc(OC(F)(F)F)cc4)CC3)c(Cl)c2)o1 | < 100 nM
24 | O=C(C#Cc1ccc(-c2nnc(CO)o2)cc1Cl)Nc1ccc(C(F)(F)F)c(Cl)c1 | < 100 nM
25 | O=C(Nc1ccc(C(F)(F)F)cc1)N1CC=C(c2ncc(-c3nnc(CO)o3)cc2Cl)CC1 | < 100 nM
26 | O=C(Nc1ccc(C(F)(F)F)cn1)N1CC=C(c2ncc(-c3noc(CO)n3)cc2Cl)CC1 | < 100 nM
27 | O=C(C#Cc1ccc(-c2nnc(CO)o2)cc1Cl)Nc1ccc(C(F)(F)F)cc1 | < 100 nM
28 | O=C(Nc1ccc(C(F)(F)F)c(Cl)c1)N1CC=C(c2ncc(-c3nnc(CO)o3)cc2Cl)CC1 | < 100 nM
29 | O=C(Nc1ccc(C(F)(F)F)cn1)N1CCN(c2ncc(-c3nnc(CO)o3)cc2Cl)CC1 | < 100 nM
30 | O=C(Nc1ccc(C(F)(F)F)cn1)N1CC=C(c2ncc(-c3nnc(CO)o3)cc2Cl)CC1 | < 100 nM
31 | Cc1cc(NC(=O)N2CC=C(c3ncc(-c4nc(CO)no4)cc3F)CC2)ccc1C(F)(F)F | < 100 nM
32 | Cc1nnc(-c2cnc(C3=CCN(C(=O)Nc4ccc(C(F)(F)F)cc4)CC3)c(Cl)c2)o1 | < 100 nM
33 | O=C(Nc1ccc(C(F)(F)F)cn1)N1CC=C(c2ncc(-c3nc(CO)no3)cc2F)CC1 | < 100 nM
